Measurements from US12365687B2 (Hoffmann-La Roche Inc., priority 2021, dated 2025).
Where two headings read alike, the source gives them in different places.

Tests used:
[1] = target: human GABAA α1β3γ2 receptor (Homo sapiens (Human), UniProt P14867+P18507); assay: Radioligand binding assay for γ2-containing GABAA subtypes, [3H]Flumazenil competition (α1β3γ2); details: for γ2/γ1 Selectivity Ratio: Ki α1β3γ2 (nM)/Ki α2β2γ1 (nM); for LogSel: Log[Ki α1β3γ2 (nM)/Ki α2β2γ1 (nM)]
Protocol: The affinity of compounds at GABAA γ2 subunit-containing receptors was measured by competition for [^3H]Flumazenil (81.1 Ci/mmol; Roche) binding to HEK293F cells expressing human (transiently transfected) receptors of composition α1β3γ2.
Harvested pellets from HEK293F cells expressing the different GABAA γ2 receptor subtypes were resuspended in Mannitol Buffer pH 7.2-7.4 and processed as described above for the cells expressing the GABAA γ1 subunit-containing receptors.
Assays were incubated to equilibrium for 1 hour at 4° C. and harvested onto GF/C uni-filters (Packard) by filtration using a Packard harvester and washing with ice-cold wash buffer (50 mM Tris; pH 7.5). After anhydrousing, filter-retained radioactivity was detected by liquid scintillation counting. Ki values were calculated using Excel-Fit (Microsoft) and are the means of two determinations.

[2] = target: α2β2γ1 GABAA receptor subtype (Homo sapiens (Human), UniProt P47869+Q8N1C3); assay: Two-electrode voltage clamp electrophysiology in Xenopus oocytes expressing GABAA receptors (modulation of GABA EC20 current); format: cell-based; details: for Efficacy (GABA)%: % modulation of GABA EC20 = 100*(Fold increase-1), α2β2γ1 oocytes, compound at approx. 30-fold Ki; for Fold increase h-GABA-A α2β2γ1 oocyte @ 30-fold Ki: Xenopus oocytes expressing α2β2γ1, compound at approx. 30-fold its Ki α2β2γ1, GABA EC20 current
Protocol: Xenopus laevis oocytes at maturation stages V-VI were used for the expression of cloned mRNA encoding GABAA receptor subunits. Oocytes ready for RNA micro-injection were bought from Ecocyte, Castrop-Rauxel, Germany and stored in modified Barth's medium (composition in mM: NaCl 88, KCl 1, NaHCO3 2.4, HEPES 10, MgSO4 0.82, CaNO3 0.33, CaCl2 0.33, pH=7.5) at 20° C. until the experiment.
Oocytes were plated in 96-well plates for microinjection using the Roboinject automated instrument (MultiChannelSystems, Reutlingen, Germany). Approximately 50 nL of an aqueous solution containing the RNA transcripts for the subunits of the desired GABAA receptor subtype was injected into each oocyte. […] Oocytes were kept in modified Barth's medium (composition in mM: NaCl 88, KCl 1, NaHCO3 […], HEPES 10, MgSO4 0.82, CaNO3 0.33, CaCl2 0.33, pH=7.5) at 20° C. until the experiment.
Electrophysiological experiments were performed using the Roboocyte instrument (MultiChannelSystems, Reutlingen, Germany) on days 3 to 5 after the micro-injection of mRNA. During the experiment the oocytes were constantly superfused by a solution containing (in mM) NaCl 90, KCl 1, HEPES 5, MgCl2 1, CaCl2 1 (pH 7.4). Oocytes were impaled by two glass microelectrodes (resistance: 0.5-0.8 MΩ) which were filled with a solution containing KCl 1M+K-acetate 1.5 M and voltage-clamped to −80 mV. The recordings were performed at room temperature using the Roboocyte two-electrode voltage clamp system (Multichannelsystem). After an initial equilibration period of 1.5 min GABA was added for 1.5 min at a concentration evoking approximately 20% of a maximal current response (EC20). After another rest interval of 2.5 min GABA was again added evoking a response of similar amplitude and shape. […] Current traces were recorded at a digitization rate of 10 Hz during and shortly before and after the GABA application.
Each compound and concentration was tested on at least 3 oocytes. Different oocytes were used for different compound concentrations.
For the analysis, the digitized current traces of the first and second GABA response were superimposed and, if necessary, rescaled to equal maximal amplitudes. The ratio between the two responses during the time interval of test compound application was calculated point by point. The extremum of the resulting “ratio trace” was taken as the efficacy (“Fold increase”) of the compound expressed as “% modulation of GABA EC20” (100*(Fold increase-1)).

[3] = target: human GABAA α2β2γ1 receptor (Homo sapiens (Human), UniProt P47869+Q8N1C3); assay: Radioligand binding assay for γ1-containing GABAA subtypes, [3H]RO7239181 competition (α2β2γ1)
Protocol: (§1) The affinity of compounds at GABAA γ1 subunit-containing receptors was measured by competition for [^3H]RO7239181 (67.3 Ci/mmol; Roche) binding to membranes from HEK293F cells (ThermoFisher R79007) expressing human (transiently transfected) receptors of composition α5β2γ1, α2β2γ1, α1β2γ1.
(§2) Harvested pellets from HEK293F cells expressing the different GABAA receptor subtypes were resuspended in Mannitol Buffer pH 7.2-7.4 (Mannitol 0.29 M, Triethylamine 10 mM, Acetic acid 10 mM, EDTA 1 mM plus protease inhibitors (20 tablets Complete, Roche Diagnostics Cat. No. 05 056 489 001 per liter)), washed two times and then resuspended at 1:10 to 1:15 dilution in the same buffer. Cell disruption was performed by stirring the suspension in a Parr vessel #4637 at 435 psi for 15 minutes, and then the suspensions were centrifuged at 1000×g for 15 minutes at 4° C. (Beckman Avanti J-HC; rotor JS-4.2). The supernatant (S1) was transferred in a 2 l Schott flask and the pellet (P1) was resuspended with Mannitol Buffer up to 175 ml. The resuspended pellet was transferred into a 250 ml Corning centrifugal beaker and centrifuged at 1500×g for 10 minutes at 4° C. (Beckman Avanti J-HC; rotor JS-4.2). The supernatant (S1) was then transferred in the 2 l Schott flask and the pellet was discarded. The supernatants (S1) were centrifuged in 500 ml Beckman polypropylene centrifugal beaker at 15′000×g for 30 minutes at 4° C. (Beckman Avanti J-20 XP; rotor JLA-10.500). The pellet (P2) was resuspended with Mannitol Buffer 1:1 and frozen at −80° C. The supernatant (S2) was centrifuged in 100 ml Beckman polypropylene centrifugal tubes at 48000×g for 50 minutes at 4° C. (Beckman Avanti J-20 XP; rotor JA-18). The supernatant (S3) was discarded and the pellet (P3) was resuspended with 1:1 Mannitol Buffer. The P2 and P3 protein concentration was determined with the BIORAD Standard assay method with bovine serum albumin as standard and measured on the NANO-Drop 1000. The membrane suspension was aliquots (500 μl per tube) and stored at −80° C. until required.
(§3) Membrane homogenates were resuspended and polytronised (Polytron PT1200E Kinematica AG) in Potassium Phosphate 10 mM, KCl 100 mM binding buffer at pH 7.4 to a final assay concentration determined with a previous experiment.
(§4) Assays were incubated to equilibrium for 1 hour at 4° C. and then, membranes were filtered onto unifilter (96-well white microplate with bonded GF/C filters preincubated 20-50 minutes in 0.3% Polyethylenimine) with a Filtermate 196 harvester (Packard BioScience) and washed 4 times with cold Potassium Phosphate 10 mM pH 7.4, KCl 100 mM binding buffer. After anhydrousing, filter-retained radioactivity was detected by liquid scintillation counting. Ki values were calculated using Excel-Fit (Microsoft) and are the means of two determinations.

[4] = target: human GABAA α5β2γ1 receptor (Homo sapiens (Human), UniProt P31644+Q8N1C3); assay: Radioligand binding assay for γ1-containing GABAA subtypes, [3H]RO7239181 competition (α5β2γ1)
Protocol: as §1, §2, §3, §4

[5] = Ki h-GABAA α2β2γ1, [3H]RO7239181 competition binding, human GABAA α2β2γ1
[6] = Ki h-GABAA α2β2γ1, displacement of [3H]RO7239181, membranes of HEK293F cells expressing human receptors, means of two determinations

SMILES | Ki [1] [nM] | γ2/γ1 Selectivity Ratio [1] | LogSel [1] | Efficacy (GABA)% [2] [%] | Fold increase h-GABA-A α2β2γ1 oocyte @ 30-fold Ki [2] | Ki [3, 5] [nM] | Ki [3, 6] [nM] | Ki [4] [nM] | γ2/γ1 Selectivity Ratio ([1]; Table 3) | LogSel ([1]; Table 3) | Ki ([1]; read-out: Ki h-GABAA α1β3γ2, Table 3, reference compounds) [nM] | Ki ([3]; Ki h-GABAA α2β2γ1, Table 3, reference compounds) [nM]
[2H]C([2H])([2H])OC1CN(C(=O)c2nc3n(n2)-c2ccc(Cl)c(Cl)c2C(c2c(F)cccc2F)=N[C@H]3C)C1 [Example 17, [(4S)-7,8-dichloro-6-(2,6-difluorophenyl)-4-methyl-4H-[1,2,4]triazolo[1,5-a][1,4]benzodiazepin-2-yl]-[3-(trideuteriomethoxy)azetidin-1-yl]methanone] | 579 | 223.3 | 2.35 | 44 | 1.44 | 2.6 | 2.59 | 1.3 |  |  |  | 
C[C@@H]1N=C(c2c(F)cccc2F)c2c(ccc(Cl)c2Cl)-n2nc(C(F)F)nc21 [Example 18] | 437 | 36.8 | 1.57 | 70 | 1.70 | 11.9 | 11.9 | 0.69 |  |  |  | 
[2H]C([2H])([2H])N(C(=O)c1nc2n(n1)-c1ccc(Cl)c(Cl)c1C(c1c(F)cccc1F)=N[C@H]2C)C([2H])([2H])[2H] [Example 19, (4S)-7,8-dichlor-6-(2,6-difluorophenyl)-4-methyl-N,N-bis(trideuteriomethyl)-4H-[1,2,4]triazolo[1,5-a][1,4]benzodiazepine-2-carboxamide] | 2650 | 81.5 | 1.91 | 97 | 1.97 | 32.5 | 32.5 | 1.98 | 81.5 | 1.91 | 2650 | 32.5
[2H]C([2H])([2H])NC(=O)c1nc2n(n1)-c1ccc(Cl)c(Cl)c1C(c1c(F)cccc1F)=N[C@H]2C [Example 20, (4S)-7,8-dichloro-6-(2,6-difluorophenyl)-4-methyl-N-(trideuteriomethyl)-4H-[1,2,4]triazolo[1,5-a][1,4]benzodiazepine-2-carboxamide] | 593 | 113.1 | 2.05 | 78 | 1.78 | 5.2 | 5.24 | 0.89 |  |  |  | 
C[C@@H]1N=C(c2c(F)cccc2F)c2c(ccc(C(F)(F)F)c2Cl)-n2ncnc21 [Example 22, (4S)-7-chloro-6-(2,6-difluorophenyl)-4-methyl-8-(trifluoromethyl)-4H-[1,2,4]triazolo[1,5-a][1,4]benzodiazepine] | 1560 | 136.7 | 2.14 | 78 | 1.78 | 11.4 | 11.4 | 1.02 |  |  |  | 
O=C(c1nc2n(n1)-c1ccc(Cl)c(Cl)c1C(c1c(F)cccc1F)=NC2)N1CC(O)C1 [Example 24, [7,8-dichloro-6-(2,6-difluorophenyl)-4H-[1,2,4]triazolo[1,5-a][1,4]benzodiazepin-2-yl]-(3-hydroxyazetidin-1-yl)methanone] | 273 | 86.7 | 1.94 | 88 | 1.88 | 3.1 | 3.14 | 0.45 |  |  |  | 
C[C@@H]1N=C(c2c(F)cccc2F)c2c(ccc(Cl)c2Cl)-n2nc(C(=O)N3CC(O)C3)nc21 [Example 25, [(4S)-7,8-dichloro-6-(2,6-difluorophenyl)-4-methyl-4H-[1,2,4]triazolo[1,5-a][1,4]benzodiazepin-2-yl]-(3-hydroxyazetidin-1-yl)methanone] | 688 | 172.8 | 2.24 | 63 | 1.63 | 4 | 3.98 | 1.44 |  |  |  | 
COCc1nc2n(n1)-c1ccc(Cl)c(Cl)c1C(c1c(F)cccc1F)=N[C@H]2C [Example 27, (4S)-7,8-dichloro-6-(2,6-difluorophenyl)-2-(methoxymethyl)-4-methyl-4H-[1,2,4]triazolo[1,5-a][1,4]benzodiazepine] | 707 | 61.8 | 1.79 | 69 | 1.69 | 11.4 | 11.4 | 1.08 |  |  |  | 
COCCNC(=O)c1nc2n(n1)-c1ccc(Cl)c(Cl)c1C(c1c(F)cccc1F)=N[C@H]2C [Example 28, (4S)-7,8-dichloro-6-(2,6-difluorophenyl)-N-(2-methoxyethyl)-4-methyl-4H-[1,2,4]triazolo[1,5-a][1,4]benzodiazepine-2-carboxamide] | 578 | 147.4 | 2.17 | 56 | 1.56 | 3.9 | 3.92 | 1.08 |  |  |  | 
